# Data taken from paper PMC7613620, “Reaction hijacking of tyrosine tRNA synthetase as a whole-of-life-cycle antimalarial strategy” (Science (New York, N.Y.), 2022).
# Experiments:
# [1] = SCID, mouse, in vivo, ip, 50 mg/kg
# Protocol: 625 of 50 mg/kg of compound on day 3 post-infection and measuring the effect on blood parasitemia by
# 626 microscopic analysis of Giemsa-stained blood smears (on days 3, 4, 5, 6 and 7 post-infection). Mice were
# 630 Human biological samples were sourced ethically; and their research use was in accord with the terms of
# 631 the informed consent. All animal studies were ethically reviewed and carried out in accredited facilities in
# 632 accordance with the relevant country’s directives and the institution’s Policy on the Care, Welfare and
# 633 Treatment of Animals.
# 635 Plasma exposure in infected mouse model
# 637 blood samples (20 μL) were obtained at time points up to 24 hours after the first administration. Protein was
# 638 precipitated with acetonitrile and the remaining compound was assessed by LC-MS/MS in the selected reaction
# 641 Rat pharmacokinetics (PK) analyses
# 642 Sprague-Dawley rats (11 weeks old) were sourced from Hilltop Lab Animals, Inc (Scottdale, Pennsylvania,
# 643 USA). ML901 was formulated in EtOH: DMAC: PEG400: H2O at 1:1:4:4 (v/v) and 10% captisol in 50 […]
# 648 0.5% formic acid in methanol and the supernatants were analysed by positive ion electrospray LC-MS for
# 649 the administered compound. Non-compartmental pharmacokinetic parameters were calculated from […]
# 660 IGM Genomics Center on the Illumina HiSeq 2500 in RapidRun mode to generate 100bp paired-end reads.
# [2] = test system: P. falciparum (Cam3.II-rev) schizont stage; assay: 3 h drug pulse viability assay; type: cell-based, Plasmodium falciparum; conditions: Plasmodium falciparum, 3 h, read-out: IC50 (Viability)
# Protocol: 553 Sigma-Aldrich) for 48-72 h. For drug pulse assays, tightly synchronized parasites (1-1.5% parasitemia,
# 554 0.2% final hematocrit) were added to the plates and incubated for 3 h. Drugs were removed and the
# 555 parasitemia assessed in the trophozoite stage of the next cycle.
# 557 Compounds were tested against a range of drug resistant field isolates and laboratory strains using a
# 558 modified [3H]-hypoxanthine incorporation assay, as previously reported (46). Field isolates 7G8, Cam3.1,
# 559 Dd2, K1, TM90C2B and NF54 were obtained from MR4 (www.beiresources.org).
# 561 Mammalian cell culture experiments
# 562 The HepG2 (Human hepatocyte carcinoma) cell line was procured from ATCC (American Type
# 563 Culture Collection, Manassas, USA; HB-8065) and viability assessed using Cell Titer-GLO luminescent
# 564 cell viability assay reagents (Promega, catalogue number: G7570) (47, 48). For the assay, 2000 cells/well
# 565 were plated in 384-well plates 24 h prior to the experiment and incubated at 37°C in a CO2 incubator. The
# 566 medium was removed and cells were treated with fresh medium containing either vehicle (0.5% DMSO)
# 567 or serially diluted test compounds or doxorubicin (1.3 nM to 25 µM) in a final volume of 50 µl/well and
# 568 further incubated for 72 h at 37°C in a CO2 incubator.
# 569 were treated with 5 µl of 1% Triton X-100 (final assay conc. 0.1%). Following incubation, 25 µl of medium
# 570 was discarded and 25 µl of Cell Titer-GLO reagent was added to each well and the plate was kept on a plate
# 571 shaker for 15 min at 25°C with shaking at 300 rpm. Luminescence signals were measured in a Spectramax
# 572 M5 reader (Molecular Devices).
# 574 H1650 is a human lung cancer derived ATG7-null cell line (49) that can be used to assess effects on targets
# 576 adenocarcinoma; bronchoalveolar carcinoma). Other cells lines used are: H460 (NCI-H460; human lung;
# 577 carcinoma; large cell lung cancer; ATCC: HTB-177); and HCT116 (human colon; colorectal carcinoma;
# 578 ATCC: CCL-247; Lot : 5056139). […]
# 580 inhibitors and cell viability was assessed by comparing the ATP content in compound-treated wells with […]
compound,measurement,setting,value
Nc1ncnc2c1c(OC(F)F)nn2[C@@H]1O[C@H](COS(N)(=O)=O)[C@@H](O)[C@H]1O [ML901],exposure (area under the curve),[1],580 µM·h
same,IC50,[2],56 nM
